The source of these data is ChEMBL document CHEMBL1201862, “PubChem BioAssay data set” (2004).

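Grown in 96-well plates, cells were treated for 48 hours with each compound at five concentrations. Insufficient inhibition: endpoint recorded as highest concentration tested. GI50 is the concentration that inhibits growth by half.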 Active and inactive are the calls of the source. No stated cut-off is given here; in the data, active = GI50 up to about 1.1 µM and inactive = higher.

Test systems include 786-0; A549; CAKI-1; EKVX; HOP-62; KM12; LOX IMVI; MCF7; MDA-MB-435; MOLT-4; Malme-3M; NCI-H23; NCI-H460; OVCAR-4; OVCAR-5; SK-MEL-28; SK-MEL-2; T47D; TK-10; U-251.
Common to all, as to test: NCI-60 cell line screen, 48 h

Turning to `CCOC(=O)c1nc2cc(F)c(F)cc2nc1NCc1cc(OC)c(OC)c(OC)c1`, the GI50 was 57.1 µM (inactive) with 786-0; > 100 µM (inactive) with A549; > 100 µM (inactive) in the assay on CAKI-1; > 100 µM (inactive) in the assay on EKVX; 38.5 µM (inactive) with HOP-62; > 100 µM (inactive) in the assay on KM12. Besides, the GI50 with LOX IMVI, in the assay on MCF7, with MDA-MB-435, with MOLT-4, in the assay with Malme-3M and in the assay on NCI-H23 was > 100 µM (inactive) throughout. The GI50 in the assay with NCI-H460 was > 100 µM (inactive); in the assay with OVCAR-4, > 100 µM (inactive); with OVCAR-5, 54.2 µM (inactive); in the assay on SK-MEL-28, > 100 µM (inactive); in the assay on SK-MEL-2 it was > 100 µM (inactive); in the assay on T47D, > 100 µM (inactive). Besides, the GI50 in the assay with TK-10 was > 100 µM (inactive); in the assay with U-251, 35.9 µM (inactive).
Turning to `NS(=O)(=O)c1nc(S(=O)(=O)O)c2[nH]cnc2n1`, the GI50 with 786-0, in the assay on A549, in the assay with CAKI-1, in the assay on EKVX, with HOP-62 and in the assay on KM12 was > 100 µM (inactive) each time. Further, the GI50 was > 100 µM (inactive) with LOX IMVI; > 100 µM (inactive) in the assay with MCF7; > 100 µM (inactive) with MDA-MB-435; 29 µM (inactive) with MOLT-4; > 100 µM (inactive) in the assay on Malme-3M; > 100 µM (inactive) in the assay on NCI-H23. The GI50 in the assay on NCI-H460, in the assay on OVCAR-4, in the assay on OVCAR-5, with SK-MEL-28, in the assay with SK-MEL-2 and in the assay on T47D was > 100 µM (inactive) in each case. Moreover, the GI50 in the assay on TK-10 and in the assay with U-251 was > 100 µM (inactive) throughout.
Regarding `CC(C)(C)C1CCC2c3c([nH]c4ccccc34)C3C(=O)N(c4ccc5c(c4)C(=O)c4ccccc4C5=O)C(=O)C3C2C1` (stereo not given), the GI50 in the assay with 786-0, in the assay on A549, with CAKI-1, in the assay with EKVX, in the assay with HOP-62 and with KM12 was > 100 µM (inactive) each time. The GI50 in the assay with LOX IMVI, with MCF7, in the assay on MDA-MB-435, with MOLT-4, in the assay on Malme-3M and with NCI-H23 was > 100 µM (inactive) in each case. The GI50 in the assay on NCI-H460, in the assay with OVCAR-4, in the assay with OVCAR-5, with SK-MEL-28, with SK-MEL-2 and in the assay on T47D was > 100 µM (inactive) each time. The GI50 in the assay with TK-10 and with U-251 was > 100 µM (inactive) throughout.
In the case of `CC(=O)OC(Cc1cc(C=C(C(F)(F)F)C(F)(F)F)cc(C)n1)(C(F)(F)F)C(F)(F)F`, the GI50 is 0.839 µM (active) in the assay on 786-0; 2.88 µM (inactive) in the assay on A549; 1.77 µM (inactive) in the assay on CAKI-1; 2.01 µM (inactive) in the assay with EKVX; 1.79 µM (inactive) with HOP-62; 1.55 µM (inactive) in the assay with KM12. The GI50 was 1.14 µM (inactive) in the assay on LOX IMVI; 0.14 µM (active) in the assay on MCF7; 1.48 µM (inactive) in the assay on MDA-MB-435; < 0.01 µM (active) in the assay on MOLT-4; 2.48 µM (inactive) in the assay with Malme-3M; 1.45 µM (inactive) in the assay on NCI-H23. Also, the GI50 in the assay on NCI-H460 is 1.99 µM (inactive); in the assay on OVCAR-4, 1.72 µM (inactive); in the assay on OVCAR-5 it was 2.18 µM (inactive); in the assay on SK-MEL-28, 1.38 µM (inactive); in the assay with SK-MEL-2, 2.1 µM (inactive); in the assay on T47D it was 1.9 µM (inactive). The GI50 in the assay with TK-10 is 2.8 µM (inactive); with U-251, 1.55 µM (inactive).
As to `C/C(=N\NC(=S)NC1CCCC1)c1ccccn1`, the GI50 was 0.0467 µM (active) in the assay on 786-0; 0.0991 µM (active) with A549; < 0.01 µM (active) with CAKI-1; < 0.01 µM (active) in the assay on EKVX; < 0.017 µM (active) in the assay with HOP-62; 0.0708 µM (active) in the assay with KM12. For the same molecule, the GI50 in the assay with LOX IMVI is < 0.01 µM (active); with MCF7, < 0.01 µM (active); in the assay on MDA-MB-435, 0.578 µM (active); with MOLT-4, < 0.01 µM (active); in the assay on Malme-3M, 0.434 µM (active); in the assay with NCI-H23, < 0.0177 µM (active). For the same molecule, the GI50 in the assay with NCI-H460 is 0.0533 µM (active); in the assay on OVCAR-4, 0.135 µM (active); in the assay with OVCAR-5, 0.0356 µM (active); in the assay with SK-MEL-28, 3.28 µM (inactive); with SK-MEL-2, 1.35 µM (inactive); in the assay on T47D, < 0.01 µM (active). For the same molecule, the GI50 in the assay with TK-10 was 0.202 µM (active); in the assay with U-251, 0.0753 µM (active).
With `CCCCCCCCCCCCCCCCCCOC(COP(=O)(O)OCC1OC(n2cc(F)c(=O)[nH]c2=O)CC1O)COP(=O)(O)OCC1OC(n2ccc(N)nc2=O)C(O)C1O` (stereo not given), the GI50 was 2.82 µM (inactive) in the assay on 786-0; 2.81 µM (inactive) in the assay on A549; 13.2 µM (inactive) in the assay on CAKI-1; > 100 µM (inactive) with EKVX; 1.95 µM (inactive) in the assay with HOP-62; 59.2 µM (inactive) in the assay on KM12. In addition, the GI50 was 1.14 µM (inactive) in the assay on LOX IMVI; 2.37 µM (inactive) in the assay on MCF7; 19.5 µM (inactive) in the assay on MDA-MB-435; 1.72 µM (inactive) with MOLT-4; > 68.9 µM (inactive) in the assay on Malme-3M; 7.98 µM (inactive) in the assay with NCI-H23. The GI50 is 0.159 µM (active) in the assay on NCI-H460; 47.1 µM (inactive) in the assay with OVCAR-4; 66.8 µM (inactive) with OVCAR-5; 64.6 µM (inactive) with SK-MEL-28; > 67 µM (inactive) with SK-MEL-2; > 100 µM (inactive) in the assay with T47D. The GI50 in the assay with TK-10 was 33.2 µM (inactive); in the assay on U-251 it was 7.13 µM (inactive).
Turning to `COc1cc2c(cc1OCCCOc1cc3c(cc1OC)C(=O)N1CCC[C@H]1CN3)N=C[C@@H]1CCCN1C2=O`, the GI50 in the assay with 786-0 was 0.0656 µM (active); with A549, 0.7 µM (active); in the assay on CAKI-1 it was 0.324 µM (active); with EKVX, 1.89 µM (inactive); in the assay on HOP-62, 0.0317 µM (active); in the assay with KM12, 0.0893 µM (active). In addition, the GI50 in the assay on LOX IMVI was 0.0371 µM (active); in the assay on MCF7, < 0.0391 µM (active); with MDA-MB-435, 0.117 µM (active); in the assay with MOLT-4, 0.011 µM (active); in the assay on Malme-3M it was 0.115 µM (active); with NCI-H23, 0.158 µM (active). For the same molecule, the GI50 with NCI-H460 was 0.228 µM (active); in the assay with OVCAR-4, 0.67 µM (active); in the assay on OVCAR-5, 0.182 µM (active); in the assay on SK-MEL-28, 0.202 µM (active); with SK-MEL-2, 0.0977 µM (active); with T47D, 0.0309 µM (active). For the same molecule, the GI50 is 0.163 µM (active) in the assay with TK-10 and 0.0189 µM (active) with U-251.
`COc1ccc(/C=C2\C(=O)N(C3OC(COC(C)=O)C(OC(C)=O)C(OC(C)=O)C3OC(C)=O)c3ccccc3N=C2N)cc1` (stereo not given): the GI50 in the assay with 786-0 is 17.5 µM (inactive); in the assay on A549, 29.2 µM (inactive); with CAKI-1, 31.4 µM (inactive); in the assay with EKVX, 26.8 µM (inactive); with HOP-62, 28.9 µM (inactive); with KM12, 16.9 µM (inactive). In addition, the GI50 in the assay with LOX IMVI was 24.5 µM (inactive); in the assay with MCF7, 19.1 µM (inactive); with MDA-MB-435 it was 4.65 µM (inactive); in the assay on MOLT-4, 18.3 µM (inactive); in the assay with Malme-3M, 27.4 µM (inactive); in the assay on NCI-H23, 20 µM (inactive). In addition, the GI50 with NCI-H460 was 25.1 µM (inactive); in the assay with OVCAR-4, 33.5 µM (inactive); with OVCAR-5 it was 33.9 µM (inactive); with SK-MEL-28, 23.9 µM (inactive); in the assay with SK-MEL-2, 23.1 µM (inactive); with T47D, 14 µM (inactive). The GI50 in the assay on TK-10 is 34 µM (inactive); in the assay on U-251 it was 27.1 µM (inactive).
For `CCOC(=O)C1(NC(=O)OC(C)(C)C)CCc2[nH]oc(=O)c2C1` (stereo not given), the GI50 is > 100 µM (inactive) in the assay on 786-0; > 100 µM (inactive) with A549; > 100 µM (inactive) with CAKI-1; > 100 µM (inactive) with EKVX; > 100 µM (inactive) in the assay on HOP-62; 9.95 µM (inactive) in the assay on KM12. Also, the GI50 in the assay on LOX IMVI, in the assay on MCF7, with MDA-MB-435, with MOLT-4, in the assay on Malme-3M and in the assay with NCI-H23 was > 100 µM (inactive) in each case. In addition, the GI50 in the assay with NCI-H460, with OVCAR-4, with OVCAR-5, with SK-MEL-28, with SK-MEL-2 and with T47D was > 100 µM (inactive) each time. In addition, the GI50 in the assay with TK-10 and with U-251 was > 100 µM (inactive) throughout.
In the case of `Cc1cc(C)c2c(=N)c3ccccc3n(CCCCCCCCn3c4ccccc4c(=N)c4c(C)cc(C)nc43)c2n1`, the GI50 with 786-0 was 0.931 µM (active); with A549, 1.38 µM (inactive); with CAKI-1, 1.7 µM (inactive); in the assay with EKVX, 1.4 µM (inactive); in the assay on HOP-62, 1.23 µM (inactive); in the assay on KM12, 0.358 µM (active). The GI50 was 0.515 µM (active) in the assay on LOX IMVI; 0.586 µM (active) with MCF7; 1.54 µM (inactive) with MDA-MB-435; 0.258 µM (active) in the assay with MOLT-4; 1.74 µM (inactive) with Malme-3M; 1.46 µM (inactive) in the assay with NCI-H23. Moreover, the GI50 in the assay with NCI-H460 is 0.184 µM (active); in the assay with OVCAR-4 it was 0.627 µM (active); with OVCAR-5 it was 1.89 µM (inactive); in the assay on SK-MEL-28 it was 1.6 µM (inactive); in the assay with SK-MEL-2, 1.75 µM (inactive); with T47D, 1.77 µM (inactive). Further, the results for the GI50 in the assay on TK-10 and with U-251 were 1.93 µM (inactive) and 0.553 µM (active), respectively.
